“And” between values parts separate entries of the source, which are not always exact repeats. Equal entries are not always repeated.
Legend:
Smad2/P-Smad2 = assay: Western blot of P-Smad2/Smad2; type: cell-based, human; conditions: C8161, 10 nM, 24 h, relative to β-actin, against control
Protocol: Cells at 80% confluence were rinsed with PBS, harvested by scrapping into a modified RIPA buffer plus protease inhibitor cocktail using 100 μL buffer per 1 × 10^6 cells. After sonication and centrifugation, the protein concentrations in the supernatants were determined using a BCA assay (Thermo Fisher Scientific). […] Nodal was detected using a mouse monoclonal anti-Nodal antibody (sc-373910; Santa Cruz; 1 μg/ml in 20 mM Tris/150 mM NaCl/0.1% [w/v] Tween 20, pH 7.4 [TBST] plus 5% BSA) followed by an anti-mouse plus horseradish peroxidase (HRP) secondary antibody (NXA931; GE Healthcare; 1 μg/ml in TBST plus 5% BSA) and enhanced chemiluminescence (ECL; GE Healthcare). Smad2 was detected using a rabbit polyclonal anti-Smad2/3 antibody (07-408; Millipore; 1 μg/ml in TBST plus 5% BSA) followed by an anti-rabbit plus HRP secondary antibody (NA934V; GE Healthcare; 1 μg/ml in TBST plus 5% BSA) and ECL. […] To assess relative changes in protein expression, the exposed films were digitized using a ChemiDoc XRS imager (Bio-Rad Laboratories) and the relative amount of protein determined against the untreated control cells normalized to a value of 1.0 using the imager’s Quantity One software package (Bio-Rad Laboratories) and corrected for loading of protein into each lane against the β-actin protein measured in the control lane.

TGFβig-h3 = biological target: T1, TGFβig-h3 (Homo sapiens, UniProt Q15582); assay: Surface plasmon resonance (Biacore); type: binding; conditions: TGFβig-h3, SPR
T1 sequence (Q15582 24-683): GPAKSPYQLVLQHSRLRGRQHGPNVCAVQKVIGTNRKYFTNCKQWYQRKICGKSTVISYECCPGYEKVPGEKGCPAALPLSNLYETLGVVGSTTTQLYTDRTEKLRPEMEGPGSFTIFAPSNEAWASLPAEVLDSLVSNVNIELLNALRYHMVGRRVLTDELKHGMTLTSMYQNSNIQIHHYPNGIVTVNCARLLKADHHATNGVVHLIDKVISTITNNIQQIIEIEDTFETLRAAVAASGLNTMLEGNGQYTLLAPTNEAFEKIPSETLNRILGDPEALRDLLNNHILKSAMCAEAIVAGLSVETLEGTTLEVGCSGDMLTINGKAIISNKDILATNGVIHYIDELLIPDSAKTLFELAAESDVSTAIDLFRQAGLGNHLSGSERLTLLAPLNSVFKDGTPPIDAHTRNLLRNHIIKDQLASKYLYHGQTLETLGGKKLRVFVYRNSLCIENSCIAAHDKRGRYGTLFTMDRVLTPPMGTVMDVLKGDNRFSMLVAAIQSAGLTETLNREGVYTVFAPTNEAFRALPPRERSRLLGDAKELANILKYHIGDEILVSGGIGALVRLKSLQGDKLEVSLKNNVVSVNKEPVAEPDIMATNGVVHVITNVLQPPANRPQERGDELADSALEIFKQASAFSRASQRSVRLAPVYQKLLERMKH

TRAP1 = biological target: T2, TRAP1 (Homo sapiens, UniProt Q12931); assay: Surface plasmon resonance (Biacore); type: binding; set-up: purchased Abcam ab123775; conditions: TRAP1, SPR
T2 sequence (Q12931 60-704): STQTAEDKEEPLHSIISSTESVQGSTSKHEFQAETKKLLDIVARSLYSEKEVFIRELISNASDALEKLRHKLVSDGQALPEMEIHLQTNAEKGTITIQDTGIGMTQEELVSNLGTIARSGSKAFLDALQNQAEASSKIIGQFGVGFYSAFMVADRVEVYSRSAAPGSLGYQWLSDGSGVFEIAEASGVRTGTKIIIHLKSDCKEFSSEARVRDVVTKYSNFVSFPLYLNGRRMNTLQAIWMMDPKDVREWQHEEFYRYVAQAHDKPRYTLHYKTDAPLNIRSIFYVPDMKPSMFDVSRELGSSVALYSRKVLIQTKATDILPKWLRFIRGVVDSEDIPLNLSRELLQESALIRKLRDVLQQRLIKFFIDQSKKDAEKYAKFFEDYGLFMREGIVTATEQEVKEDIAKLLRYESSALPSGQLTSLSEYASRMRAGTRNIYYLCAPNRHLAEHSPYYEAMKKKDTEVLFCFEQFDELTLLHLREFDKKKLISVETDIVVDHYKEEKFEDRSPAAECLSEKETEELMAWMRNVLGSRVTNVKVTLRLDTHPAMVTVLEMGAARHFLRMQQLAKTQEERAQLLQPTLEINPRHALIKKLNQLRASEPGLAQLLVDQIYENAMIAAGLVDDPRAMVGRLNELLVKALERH
Protocol: To confirm the molecular binding of the targeted protein, Surface Plasmon Resonance (SPR) was performed with a Biacore 3000. TRAP1 recombinant protein (Abcam, ab123775) or human Hsp90 recombinant protein (HSP90AB1, Abcam, ab131923) were immobilized on a CM5 sensor chip surface using the amine coupling method according to the manufacturer’s instruction (Biacore, GE Healthcare). CVM-1125 was dissolved in sodium carbonate buffer (pH 9) and then diluted in HBS-EDTA-P20 buffer to desired concentrations (five serial dilutions from 1 × 10^−5 to 1 × 10^−8 M) and injected at flow 30 μL/min with KINJET 60/180 %pos, analyte position, volume, and dissociation time. Specific binding was calculated using BiaEval 3 software.

HT29 = assay: NCI 60 cytotoxicity screening; type: cell-based; conditions: Homo sapiens, HT-29; HT29, Colon

SMILES	reduction in the ratio of P-Smad2 to Smad2 protein level (Smad2/P-Smad2) [%]	Association (ka) (TGFβig-h3)	Dissociation (kd) (TGFβig-h3)	KD (kd/ka) (TGFβig-h3)	kon (TRAP1; read-out: Association (ka)) [M⁻¹ s⁻¹]	Kd (TRAP1; read-out: KD (kd/ka))	GI50 (HT29) [nM]
COc1ccc2[nH]c(-c3cccc(F)c3)cc(=O)c2c1OP(=O)(O)O [CVM-1118]	76						
COc1ccc2[nH]c(-c3cccc(F)c3)cc(=O)c2c1O [CVM-1125]		No interaction	No interaction	No interaction	30200	67 nM and 66.8 nM	29
